Results: ChEMBL document CHEMBL1201861, “Genomics of Drug Sensitity in Cancer screening data, Wellcome Trust Sanger Institute”

Legend:
[1] = test system: ECC4; assay: cells; format: functional, cell-based; conditions: Homo sapiens;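 further: growth inhibition of ECC4 cells, read out with a cell viability assay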
Description: SANGER: Inhibition of human ECC4 cell growth in a cell viability assay.

[2] = test system: SIG-M5; assay: cells; format: functional, cell-based; conditions: Homo sapiens;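 further: cell viability assay read-out, measuring how strongly growth of cultured human SIG-M5 cells is inhibited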
Description: SANGER: Inhibition of human SIG-M5 cell growth in a cell viability assay.

[3] = test system: KMS-12-PE; assay: cells; format: functional, cell-based; conditions: Homo sapiens;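 further: growth inhibition of human KMS-12-PE cells, measured with a cell viability assay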
Description: SANGER: Inhibition of human KMS-12-PE cell growth in a cell viability assay.

[4] = test system: BC-3; assay: cells; format: functional, cell-based; conditions: Homo sapiens;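 further: cell viability assay measuring growth inhibition of human BC-3 cells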
Description: SANGER: Inhibition of human BC-3 cell growth in a cell viability assay.

[5] = test system: SR; assay: cells; format: functional, cell-based; conditions: Homo sapiens
Description: SANGER: Inhibition of human SR cell growth in a cell viability assay.

[6] = test system: TALL-1; assay: cells; format: functional, cell-based; conditions: Homo sapiens;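 further: growth inhibition of cultured human TALL-1 cells, read out by a cell viability assay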
Description: SANGER: Inhibition of human TALL-1 cell growth in a cell viability assay.

[7] = test system: BL-41; assay: cells; format: functional, cell-based; conditions: Homo sapiens;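 further: growth inhibition of human BL-41 cells, read out with a cell viability assay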
Description: SANGER: Inhibition of human BL-41 cell growth in a cell viability assay.

[8] = test system: EVSA-T; assay: cells; format: functional, cell-based; conditions: Homo sapiens;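 further: growth inhibition of EVSA-T cells, read out with a cell viability assay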
Description: SANGER: Inhibition of human EVSA-T cell growth in a cell viability assay.

[9] = test system: NCI-H1417; assay: cells; format: functional, cell-based; conditions: Homo sapiens;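 further: human NCI-H1417 cells, growth inhibition determined with a cell viability readout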
Description: SANGER: Inhibition of human NCI-H1417 cell growth in a cell viability assay.

[10] = test system: NCCIT; assay: SANGER: Inhibition of human NCCIT cell growth in a cell viability assay.; format: functional, cell-based
[11] = test system: PF-382; assay: cells; format: functional, cell-based; conditions: Homo sapiens
Description: SANGER: Inhibition of human PF-382 cell growth in a cell viability assay.

[12] = test system: D-392MG; assay: cells; format: functional, cell-based; conditions: Homo sapiens
[13] = test system: HCC1599; assay: cells; format: functional, cell-based; conditions: Homo sapiens;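 further: growth inhibition of HCC1599 cells, read out in a cell viability assay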
Description: SANGER: Inhibition of human HCC1599 cell growth in a cell viability assay.

[14] = test system: KP-N-YN; assay: cells; format: functional, cell-based; conditions: Homo sapiens;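 further: growth inhibition of KP-N-YN cells, read out with a cell viability assay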
Description: SANGER: Inhibition of human KP-N-YN cell growth in a cell viability assay.

[15] = test system: OPM-2; assay: cells; format: functional, cell-based; conditions: Homo sapiens;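 further: growth of OPM-2 cells measured with a viability assay, IC50 for suppression of proliferation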
Description: SANGER: Inhibition of human OPM-2 cell growth in a cell viability assay.

[16] = test system: CA46; assay: cells; format: functional, cell-based; conditions: Homo sapiens;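 further: growth inhibition of human CA46 cells, read out by a cell viability assay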
Description: SANGER: Inhibition of human CA46 cell growth in a cell viability assay.

[17] = test system: SCLC-21H; assay: cells; format: functional, cell-based; conditions: Homo sapiens;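 further: growth inhibition of cultured human SCLC-21H cells, read out with a cell viability assay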
Description: SANGER: Inhibition of human SCLC-21H cell growth in a cell viability assay.

[18] = test system: CESS; assay: SANGER: Inhibition of human CESS cell growth in a cell viability assay.; format: functional, cell-based
[19] = test system: NCI-H2171; assay: cells; format: functional, cell-based; conditions: Homo sapiens;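 further: growth inhibition of human NCI-H2171 cells, read out by a cell viability assay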
Description: SANGER: Inhibition of human NCI-H2171 cell growth in a cell viability assay.

[20] = test system: NCI-H1793; assay: cells; format: functional, cell-based; conditions: Homo sapiens;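 further: cell growth inhibition, read out by a cell viability assay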
Description: SANGER: Inhibition of human NCI-H1793 cell growth in a cell viability assay.

[21] = test system: NCI-H358; assay: cells; format: functional, cell-based; conditions: Homo sapiens;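 further: growth inhibition of NCI-H358 human cells, read out with a cell viability assay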
Description: SANGER: Inhibition of human NCI-H358 cell growth in a cell viability assay.

[22] = test system: HCC1954; assay: cells; format: functional, cell-based; conditions: Homo sapiens;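 further: growth inhibition of human HCC1954 cells, read out with a cell viability assay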
Description: SANGER: Inhibition of human HCC1954 cell growth in a cell viability assay.

[23] = test system: MEL-HO; assay: cells; format: functional, cell-based; conditions: Homo sapiens
Description: SANGER: Inhibition of human MEL-HO cell growth in a cell viability assay.

[24] = test system: HLE; assay: cells; format: functional, cell-based; conditions: Homo sapiens;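 further: growth inhibition of human HLE cells, read out by a cell viability assay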
Description: SANGER: Inhibition of human HLE cell growth in a cell viability assay.

[25] = test system: AU565; assay: cells; format: functional, cell-based; conditions: Homo sapiens;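 further: cell viability assay measuring growth inhibition of human AU565 cells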
Description: SANGER: Inhibition of human AU565 cell growth in a cell viability assay.

[26] = test system: CAL-27; assay: cells; format: functional, cell-based; conditions: Homo sapiens;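 further: Viability-based readout, IC50 reflecting inhibition of CAL-27 cell growth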
Description: SANGER: Inhibition of human CAL-27 cell growth in a cell viability assay.

[27] = test system: U2OS; assay: cells; format: functional, cell-based, U-2-OS; conditions: Homo sapiens;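 further: growth inhibition of human U-2-OS cells, determined with a cell viability assay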
Description: SANGER: Inhibition of human U-2-OS cell growth in a cell viability assay.

[28] = test system: HSC-4; assay: cells; format: functional, cell-based; conditions: Homo sapiens;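 further: growth inhibition of human HSC-4 cells, read out with a cell viability assay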
Description: SANGER: Inhibition of human HSC-4 cell growth in a cell viability assay.

[29] = test system: HT-3; assay: cells; format: functional, cell-based; conditions: Homo sapiens;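 further: growth inhibition measured with a cell viability readout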
Description: SANGER: Inhibition of human HT-3 cell growth in a cell viability assay.

[30] = test system: MEL-JUSO; assay: cells; format: functional, cell-based; conditions: Homo sapiens;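 further: growth inhibition of human MEL-JUSO cells, read out with a cell viability assay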
Description: SANGER: Inhibition of human MEL-JUSO cell growth in a cell viability assay.

[31] = test system: SK-MEL-28; assay: cells; format: functional, cell-based; conditions: Homo sapiens;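 further: growth inhibition of human SK-MEL-28 cells, read out with a cell viability assay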
Description: SANGER: Inhibition of human SK-MEL-28 cell growth in a cell viability assay.

[32] = test system: NCI-H2170; assay: cells; format: functional, cell-based; conditions: Homo sapiens;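 further: cell viability assay measuring growth inhibition of human NCI-H2170 cancer cells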
Description: SANGER: Inhibition of human NCI-H2170 cell growth in a cell viability assay.

[33] = test system: HOP-92; assay: cells; format: functional, cell-based; conditions: Homo sapiens;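 further: cell viability readout, with IC50 reflecting inhibition of HOP-92 cell growth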
Description: SANGER: Inhibition of human HOP-92 cell growth in a cell viability assay.

[34] = test system: BHY; assay: cells; format: functional, cell-based; conditions: Homo sapiens;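 further: cell growth inhibition read out by a viability assay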
Description: SANGER: Inhibition of human BHY cell growth in a cell viability assay.

[35] = test system: MDA-MB-361; assay: cells; format: functional, cell-based; conditions: Homo sapiens
[36] = test system: NY; assay: cells; format: functional, cell-based; conditions: Homo sapiens
Description: SANGER: Inhibition of human NY cell growth in a cell viability assay.

[37] = test system: MFE-280; assay: cells; format: functional, cell-based; conditions: Homo sapiens;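 further: growth inhibition of MFE-280 cells, determined with a cell viability readout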
Description: SANGER: Inhibition of human MFE-280 cell growth in a cell viability assay.

[38] = test system: MKN-7; assay: cells; format: functional, cell-based; conditions: Homo sapiens;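 further: growth inhibition of MKN-7 cells, read out with a cell viability assay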
Description: SANGER: Inhibition of human MKN7 cell growth in a cell viability assay.

[39] = test system: T84; assay: cells; format: functional, cell-based; conditions: Homo sapiens;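 further: growth inhibition measured with a cell viability readout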
Description: SANGER: Inhibition of human T84 cell growth in a cell viability assay.

[40] = test system: GCT; assay: cells; format: functional, cell-based; conditions: Homo sapiens;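 further: GCT cell line proliferation inhibition, read out with a cell viability assay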
Description: SANGER: Inhibition of human GCT cell growth in a cell viability assay.

[41] = test system: SK-MES-1; assay: cells; format: functional, cell-based; conditions: Homo sapiens;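 further: growth inhibition of human SK-MES-1 cells, read out with a cell viability assay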
Description: SANGER: Inhibition of human SK-MES-1 cell growth in a cell viability assay.

[42] = test system: HCC1395; assay: cells; format: functional, cell-based; conditions: Homo sapiens;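 further: growth inhibition of HCC1395 cells, read out by a cell viability assay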
Description: SANGER: Inhibition of human HCC1395 cell growth in a cell viability assay.

[43] = test system: KYSE-180; assay: cells; format: functional, cell-based; conditions: Homo sapiens;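 further: growth inhibition of KYSE-180 cells, read out with a cell viability assay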
Description: SANGER: Inhibition of human KYSE-180 cell growth in a cell viability assay.

[44] = test system: YKG-1; assay: cells; format: functional, cell-based; conditions: Homo sapiens;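 further: cell growth inhibition, read out with a viability assay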
Description: SANGER: Inhibition of human YKG-1 cell growth in a cell viability assay.

[45] = test system: HEC-1; assay: cells; format: functional, cell-based; conditions: Homo sapiens;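 further: growth inhibition of the cell line, read out with a cell viability assay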
Description: SANGER: Inhibition of human HEC-1 cell growth in a cell viability assay.

[46] = test system: NCI-H2405; assay: cells; format: functional, cell-based; conditions: Homo sapiens;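 further: growth inhibition of the human cell line, read out with a cell viability assay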
Description: SANGER: Inhibition of human NCI-H2405 cell growth in a cell viability assay.

[47] = test system: COR-L23; assay: cells; format: functional, cell-based; conditions: Homo sapiens;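 further: cell viability assay measuring how strongly compounds suppress growth of COR-L23 cells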
Description: SANGER: Inhibition of human COR-L23 cell growth in a cell viability assay.

[48] = test system: SKG-IIIa; assay: cells; format: functional, cell-based; conditions: Homo sapiens;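 further: cell growth inhibition, read out with a cell viability assay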
Description: SANGER: Inhibition of human SKG-IIIa cell growth in a cell viability assay.

[49] = test system: NCI-N87; assay: cells; format: functional, cell-based; conditions: Homo sapiens;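 further: growth inhibition of human NCI-N87 cells, read out with a cell viability assay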
Description: SANGER: Inhibition of human NCI-N87 cell growth in a cell viability assay.

[50] = test system: LoVo; assay: cells; format: functional, cell-based; conditions: Homo sapiens;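 further: growth inhibition of human LoVo cells, read out with a cell viability assay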
Description: SANGER: Inhibition of human LoVo cell growth in a cell viability assay.

[51] = test system: HSC-2; assay: cells; format: functional, cell-based; conditions: Homo sapiens;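 further: growth inhibition of human HSC-2 cells, read out by a cell viability assay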
Description: SANGER: Inhibition of human HSC-2 cell growth in a cell viability assay.

[52] = test system: C32; assay: cells; format: functional, cell-based; conditions: Homo sapiens;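 further: cell viability assay, with IC50 reflecting inhibition of C32 cell growth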
Description: SANGER: Inhibition of human C32 cell growth in a cell viability assay.

[53] = test system: U-118-MG; assay: cells; format: functional, cell-based; conditions: Homo sapiens
Description: SANGER: Inhibition of human U-118-MG cell growth in a cell viability assay.

[54] = test system: OVCAR-8; assay: cells; format: functional, cell-based; conditions: Homo sapiens;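 further: growth inhibition of human OVCAR-8 cells, read out by a cell viability assay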
Description: SANGER: Inhibition of human OVCAR-8 cell growth in a cell viability assay.

[55] = test system: AN3-CA; assay: cells; format: functional, cell-based; conditions: Homo sapiens;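 further: growth inhibition of human AN3-CA cells measured by a cell viability assay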
Description: SANGER: Inhibition of human AN3-CA cell growth in a cell viability assay.

[56] = test system: KOSC-2; assay: cells; format: functional, cell-based; conditions: Homo sapiens;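 further: growth inhibition of KOSC-2 cells, read out by a cell viability assay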
Description: SANGER: Inhibition of human KOSC-2 cell growth in a cell viability assay.

[57] = test system: SNU-387; assay: cells; format: functional, cell-based; conditions: Homo sapiens
Description: SANGER: Inhibition of human SNU-387 cell growth in a cell viability assay.

[58] = test system: SK-MEL3; assay: cells; format: functional, cell-based, SK-MEL-3; conditions: Homo sapiens
Description: SANGER: Inhibition of human SK-MEL-3 cell growth in a cell viability assay.

[59] = test system: NUGC-3; assay: cells; format: functional, cell-based; conditions: Homo sapiens
Description: SANGER: Inhibition of human NUGC-3 cell growth in a cell viability assay.

[60] = test system: HuCCT-1; assay: cells; format: functional, cell-based, HuCCT1; conditions: Homo sapiens
Description: SANGER: Inhibition of human HuCCT1 cell growth in a cell viability assay.

[61] = test system: KYSE-270; assay: cells; format: functional, cell-based; conditions: Homo sapiens
Description: SANGER: Inhibition of human KYSE-270 cell growth in a cell viability assay.

[62] = test system: KYSE-140; assay: cells; format: functional, cell-based; conditions: Homo sapiens
Description: SANGER: Inhibition of human KYSE-140 cell growth in a cell viability assay.

[63] = test system: A-375; assay: cells; format: functional, cell-based; conditions: Homo sapiens
Description: SANGER: Inhibition of human A375 cell growth in a cell viability assay.

[64] = test system: GMS-10; assay: cells; format: functional, cell-based; conditions: Homo sapiens
Description: SANGER: Inhibition of human GMS-10 cell growth in a cell viability assay.

[65] = test system: CAKI-1; assay: cells; format: functional, cell-based; conditions: Homo sapiens
Description: SANGER: Inhibition of human CAKI-1 cell growth in a cell viability assay.

CCn1c(-c2nonc2N)nc2cnc(Oc3cccc(NC(=O)c4ccc(OCCN5CCOCC5)cc4)c3)cc21 [GSK-269962A]
IC50 [1]: > 2500 nM | IC50 [2]: > 2500 nM | IC50 [3]: > 2500 nM | IC50 [4]: > 2500 nM | IC50 [5]: < 9.77 nM | IC50 [6]: > 2500 nM | IC50 [7]: > 2500 nM | IC50 [8]: > 2500 nM | IC50 [9]: > 2500 nM | IC50 [10]: > 2500 nM | IC50 [11]: > 2500 nM | IC50 [12]: 1430 nM | IC50 [13]: > 2500 nM | IC50 [14]: > 2500 nM | IC50 [15]: > 2500 nM | IC50 [16]: > 2500 nM | IC50 [17]: > 2500 nM | IC50 [18]: > 2500 nM | IC50 [19]: 959 nM

C[C@]1(c2nc3c(C(N)=O)cccc3[nH]2)CCCN1 [VELIPARIB]
IC50 [20]: > 5000 nM | IC50 [21]: > 5000 nM | IC50 [22]: > 5000 nM | IC50 [23]: > 5000 nM | IC50 [24]: > 5000 nM | IC50 [25]: > 5000 nM | IC50 [26]: > 5000 nM | IC50 [27]: > 5000 nM | IC50 [28]: > 5000 nM | IC50 [29]: > 5000 nM | IC50 [30]: > 5000 nM | IC50 [31]: > 5000 nM | IC50 [32]: > 5000 nM | IC50 [33]: > 5000 nM | IC50 [34]: > 5000 nM | IC50 [35]: > 5000 nM | IC50 [36]: > 5000 nM | IC50 [37]: > 5000 nM | IC50 [38]: > 5000 nM | IC50 [39]: > 5000 nM | IC50 [40]: > 5000 nM | IC50 [41]: > 5000 nM | IC50 [42]: > 5000 nM | IC50 [43]: > 5000 nM | IC50 [44]: > 5000 nM | IC50 [45]: > 5000 nM | IC50 [46]: > 5000 nM | IC50 [47]: > 5000 nM | IC50 [48]: > 5000 nM | IC50 [49]: > 5000 nM | IC50 [12]: > 5000 nM | IC50 [50]: > 5000 nM | IC50 [51]: > 5000 nM | IC50 [14]: > 5000 nM | IC50 [52]: > 5000 nM | IC50 [53]: > 5000 nM | IC50 [54]: > 5000 nM | IC50 [55]: > 5000 nM | IC50 [56]: > 5000 nM | IC50 [57]: > 5000 nM | IC50 [58]: > 5000 nM | IC50 [59]: > 5000 nM | IC50 [60]: > 5000 nM | IC50 [61]: > 5000 nM | IC50 [62]: > 5000 nM | IC50 [63]: > 5000 nM | IC50 [64]: > 5000 nM | IC50 [65]: > 5000 nM

CC[C@]1(O)C[C@@H]2CN(CCc3c([nH]c4ccccc34)[C@@](C(=O)OC)(c3cc4c(cc3OC)N(C)[C@H]3[C@@](O)(C(=O)OC)[C@H](OC(C)=O)[C@]5(CC)C=CCN6CC[C@]43[C@@H]65)C2)C1 [VINBLASTINE]
IC50 [20]: 29.6 nM | IC50 [21]: 37 nM | IC50 [22]: > 100 nM | IC50 [23]: 53.9 nM | IC50 [24]: 4.23 nM | IC50 [25]: 3.45 nM | IC50 [26]: 2.09 nM | IC50 [27]: 25.7 nM | IC50 [28]: 2.36 nM | IC50 [29]: 37.1 nM | IC50 [30]: 17.5 nM | IC50 [31]: 17 nM | IC50 [32]: 33.4 nM | IC50 [33]: 25.9 nM | IC50 [34]: 15.3 nM | IC50 [35]: 1.66 nM | IC50 [36]: > 100 nM | IC50 [37]: 36.1 nM | IC50 [38]: 76.7 nM | IC50 [39]: > 100 nM | IC50 [40]: 4.73 nM | IC50 [41]: 8.64 nM | IC50 [42]: 29.2 nM | IC50 [43]: 6.39 nM | IC50 [44]: 5.53 nM | IC50 [45]: 11.4 nM | IC50 [46]: > 100 nM | IC50 [47]: 3.62 nM | IC50 [48]: 17.2 nM | IC50 [49]: 5.67 nM | IC50 [12]: 18.9 nM | IC50 [50]: 6.03 nM | IC50 [51]: 20.2 nM | IC50 [14]: 46.4 nM | IC50 [52]: > 100 nM | IC50 [53]: 45.2 nM | IC50 [54]: 6.55 nM | IC50 [55]: 9.76 nM | IC50 [56]: 0.698 nM | IC50 [57]: 11.4 nM | IC50 [58]: > 100 nM | IC50 [59]: 3.46 nM | IC50 [60]: 17.3 nM | IC50 [61]: 9.63 nM | IC50 [62]: 44.9 nM | IC50 [63]: 23.5 nM | IC50 [64]: 11.3 nM | IC50 [65]: 24.6 nM
